Assay results taken from patent US20240189255A1, “METHODS OF TREATMENT OF OSTEOARTHRITIS WITH TRANSDERMAL CANNABIDIOL GEL” (ZYNERBA PHARMACEUTICALS, INC., priority 2017, published 2024).

Key:
[1] = test system: patients with confirmed osteoarthritis of the knee; assay: Double-blind, multi-center, placebo-controlled 12-week trial: worst knee pain score, WOMAC physical function, composite responders; type: in vivo, human; parameters: mean reduction from baseline in average worst knee pain scores / Worst Knee Pain Score: scale not given here
Description: (§1) Three hundred and twenty (320) patients aged 41 to 78 years of age with confirmed osteoarthritis of the knee were randomized in the double-blind, multi-center trial. Patients who completed the one-week washout and the seven-to-10-day baseline phase were randomized 1:1:1 to receive either 250 mg of CBD daily, 500 mg of CBD daily, or placebo, for 12 weeks. […] The 250 mg and 500 mg doses were administered as a 4.2% (wt/wt) CBD gel.
Across all participants, patients on 250 mg of CBD daily dosage achieved a 2.64 mean reduction from baseline in average worst knee pain scores at week 12; patients on 500 mg of CBD daily achieved a 2.83 mean reduction from baseline in average worst knee pain scores at week 12; and patients on placebo achieved a 2.37 mean reduction from baseline in average worst knee pain scores at week 12. […] A mixed-model repeated measures (MMRM) model was used to test for differences between active treatment groups and placebo based on all weekly average worst knee pain scores from Baseline to Week 12.
Over an initial 7 day period, patients were instructed to end use of other osteoarthritic treatment such as NSAID or COX-2 inhibitor, but were permitted to use acetaminophen for rescue use. At this time, baseline mean worst knee pain was identified for each patient. During the study, rescue use of acetaminophen was permitted for both active and placebo study groups, and there was no difference among the groups in prevalence of rescue use.
Fisher's Exact Test was used to test for differences in composite responders between each active treatment and placebo at LOCF. In the composite responder analysis, a positive response on the composite response analysis indicated a ≥30 percent reduction in worst average daily pain scores and a >20 percent improvement in WOMAC (Western Ontario & McMaster Universities Osteoarthritis Index) physical function score.
The study data was also analyzed with regard to the active dose per weight of the patient (i.e., dosage/weight in mg CBD/kg weight of patient). For this analysis, the patient population was divided into three groups: 0-25 percentile, 25-75 percentile, and 75-100 percentile, by dose/weight. Table 9 is a summary of composite responder analysis at last observation Dose/Weight Quartile 0-25%. Table 10 is a summary of composite responder analysis at last observation dose/weight quartile 25-75%. Table 11 is a summary of composite responder analysis at last observation dose/weight quartile 75-100%.

[2] = Pharmacokinetic data: plasma concentrations in the 12-week osteoarthritis trial; type: in vivo, human
Description: as §1

[3] = 250 mg CBD, efficacy patients, last observation, 93 assessed
[4] = 250 mg CBD, efficacy patients, last observation, 106 assessed
[5] = 500 mg CBD, efficacy patients, last observation, 91 assessed
[6] = 500 mg CBD, efficacy patients, last observation, 105 assessed
[7] = Dose/Weight Quartile 0-25%, 250 mg, last observation, 46 assessed, p=0.010

With C=C(C)[C@@H]1CCC(C)=C[C@H]1c1c(O)cc(CCCCC)cc1O [CBD, 2-[3-methyl-6-(1-methylethenyl)-2-cyclohexen-1-yl]-5-pentyl-1,3-benzenediol] the “20 Percent Responders in Physical Function WOMAC Score: No, number of patients” value [1, 3] was 33, the “20 Percent Responders in Physical Function WOMAC Score: No, percent of patients” value [1, 3] was “(35.5) %” and the “20 Percent Responders in Physical Function WOMAC Score: Yes, number of patients” value [1, 3] was 60. The “20 Percent Responders in Physical Function WOMAC Score: Yes, percent of patients” value (“20 Percent Responders … Yes, percent of patients” below) [1, 3] was “(64.5) %”, the “Composite Responder: No, number of patients” value [1, 3] was 44 and the “Composite Responder: No, percent of patients” value [1, 3] was “(47.3) %”. For the same compound, the “Composite Responder: Yes, number of patients” value ([1]; 250 mg CBD, efficacy patients, last observation, 93 assessed, p=0.016 vs placebo) was 49, the “30 Percent Reduction in Diary Pain: No, number of patients” value [1, 4] was 53 and the “30 Percent Reduction in Diary Pain: No, percent of patients” value [1, 4] was “(50.0) %”. For the same compound, the “30 Percent Reduction in Diary Pain: Yes, number of patients” value [1, 4] was 53, the “30 Percent Reduction in Diary Pain: Yes, percent of patients” value [1, 4] was “(50.0) %” and the “responder rate based on ≥30% reduction in worst pain severity” value ([1]; 250 mg of CBD daily, week 8, p=0.037) was “Statistically significant”. The “20 Percent Responders in Physical Function WOMAC Score: No, number of patients” value [1, 5] was 37, the “20 Percent Responders in Physical Function WOMAC Score: No, percent of patients” value [1, 5] was “(40.7) %” and the “20 Percent Responders in Physical Function WOMAC Score: Yes, number of patients” value [1, 5] was 54. The “20 Percent Responders … Yes, percent of patients” value [1, 5] was “(59.3) %”, the “Composite Responder: No, number of patients” value [1, 5] was 50 and the “Composite Responder: No, percent of patients” value [1, 5] was “(54.9) %”. For the same compound, the “Composite Responder: Yes, number of patients” value ([1]; 500 mg CBD, efficacy patients, last observation, 91 assessed, p=0.169 vs placebo) was 41, the “30 Percent Reduction in Diary Pain: No, number of patients” value [1, 6] was 54 and the “30 Percent Reduction in Diary Pain: No, percent of patients” value [1, 6] was “(51.4) %”. The “30 Percent Reduction in Diary Pain: Yes, number of patients” value [1, 6] was 51, the “30 Percent Reduction in Diary Pain: Yes, percent of patients” value [1, 6] was “(48.6) %” and the “20 Percent Responders … Yes, percent of patients” value ([1]; Dose/Weight Quartile 0-25%, 250 mg, last observation, 46 assessed) was 69.6%. For the same compound, the “Composite Responders: Yes, number of patients” value [1, 7] was 27, the “Composite Responders: Yes, percent of patients” value [1, 7] was 58.7% and the “mean reduction from baseline in average worst knee pain scores” value (“mean reduction from baseline” below) ([1]; all participants, 250 mg CBD daily, week 12, placebo 2.37, not statistically significant) was 2.64. For the same compound, the “mean reduction from baseline” value ([1]; all participants, 500 mg CBD daily, week 12, placebo 2.37, not statistically significant) was 2.83, the “mean reduction from baseline” value ([1]; baseline pain score ≥7, both CBD dosage groups combined, week 4, placebo 1.6, p=0.029) was 2.17 and the “mean reduction from baseline” value ([1]; baseline pain score ≥7, both CBD dosage groups combined, week 8, placebo 2.22, p=0.054) was 3.02. For the same compound, the “mean reduction from baseline” value ([1]; baseline pain score ≥7, both CBD dosage groups combined, week 12, placebo 2.52, p=0.086) was 3.29, the “Composite Responders: Yes, percent of patients” value ([1]; dose/weight quartile 25-75%, 250 mg, last observation, 47 assessed, p=0.194) was 46.8% and the “Composite Responders: Yes, percent of patients” value ([1]; dose/weight quartile 25-75%, 500 mg, last observation, 45 assessed, p=0.133) was 48.9%. The “Composite Responders: Yes, percent of patients” value ([1]; dose/weight quartile 75-100%, 500 mg, last observation, 46 assessed, p=0.453) was 41.3%, the “Composite Responders” value ([1]; male patients, 250 mg, LOCF, placebo 27%, p=0.003) was 60% and the “Worst Knee Pain Score, % reduction” value ([1]; male patients, 250 mg, wk 4) was 24%. For the same compound, the “Worst Knee Pain Score” value ([1]; male patients, 250 mg, wk 4, baseline 6.77, p=0.156) was 5.05, the “Worst Knee Pain Score, % reduction” value ([1]; male patients, 250 mg, wk 8) was 34% and the “Worst Knee Pain Score” value ([1]; male patients, 250 mg, wk 8, baseline 6.77, p=0.066) was 4.47. The “Worst Knee Pain Score, % reduction” value ([1]; male patients, 250 mg, wk 12) was 39%, the “Worst Knee Pain Score” value ([1]; male patients, 250 mg, wk 12, n=47, baseline 6.77, p=0.049) was 4.16 and the “Composite Responders” value ([1]; male patients, 500 mg, LOCF, placebo 27%, p=0.174) was 41%. For the same compound, the “Worst Knee Pain Score, % reduction” value ([1]; male patients, 500 mg, wk 4) was 22%, the “Worst Knee Pain Score” value ([1]; male patients, 500 mg, wk 4, baseline 6.85, p=0.323) was 5.33 and the “Worst Knee Pain Score, % reduction” value ([1]; male patients, 500 mg, wk 8) was 30%. The “Worst Knee Pain Score” value ([1]; male patients, 500 mg, wk 8, baseline 6.85, p=0.474) was 4.73, the “Worst Knee Pain Score, % reduction” value ([1]; male patients, 500 mg, wk 12) was 33% and the “Worst Knee Pain Score” value ([1]; male patients, 500 mg, wk 12, n=38, baseline 6.85, p=0.193) was 4.44. For the same compound, the “mean reduction from baseline” value ([1]; men, 250 mg of CBD daily, week 4, placebo 1.19, p=0.156) was 1.65, the “mean reduction from baseline” value ([1]; men, 250 mg of CBD daily, week 8, placebo 1.56, p=0.066) was 2.30 and the “mean reduction from baseline” value ([1]; men, 250 mg of CBD daily, week 12, placebo 1.70, p=0.049) was 2.68. The “pain reduction over placebo” value ([1]; patients having a baseline knee pain score less than 7, FIG. 10) was “not statistically significant”, the “Composite Responders” value ([1]; patients with ≥7 mean baseline pain score, CBD groups combined, placebo 33%, p=0.083) was 51% and the “Worst Knee Pain Score, % reduction” value ([1]; patients with ≥7 mean baseline pain score, CBD groups combined, wk4) was 28%. The “Worst Knee Pain Score” value ([1]; patients with ≥7 mean baseline pain score, CBD groups combined, wk4, baseline 7.7, p=0.029) was 5.45, the “Worst Knee Pain Score, % reduction” value ([1]; patients with ≥7 mean baseline pain score, CBD groups combined, wk8) was 40% and the “Worst Knee Pain Score” value ([1]; patients with ≥7 mean baseline pain score, CBD groups combined, wk8, baseline 7.7, p=0.054) was 4.61. For the same compound, the “Worst Knee Pain Score, % reduction” value ([1]; patients with ≥7 mean baseline pain score, CBD groups combined, wk12) was 43%, the “Worst Knee Pain Score” value ([1]; patients with ≥7 mean baseline pain score, CBD groups combined, wk12, n=75, baseline 7.7, p=0.086) was 4.34 and the “Worst Knee Pain Score, % reduction” value ([1]; total patients, 250 mg, wk 4) was 24%. For the same compound, the “Worst Knee Pain Score” value ([1]; total patients, 250 mg, wk 4, baseline 6.8, p=0.432) was 5.09, the “Worst Knee Pain Score, % reduction” value ([1]; total patients, 250 mg, wk 8) was 34% and the “Worst Knee Pain Score” value ([1]; total patients, 250 mg, wk 8, baseline 6.8, p=0.193) was 4.43. For the same compound, the “Worst Knee Pain Score, % reduction” value ([1]; total patients, 250 mg, wk 12) was 38%, the “Worst Knee Pain Score” value ([1]; total patients, 250 mg, wk 12, n=76, baseline 6.8, p=0.517) was 4.23 and the “Worst Knee Pain Score, % reduction” value ([1]; total patients, 500 mg, wk 4) was 27%. For the same compound, the “Worst Knee Pain Score” value ([1]; total patients, 500 mg, wk 4, baseline 6.87, p=0.067) was 4.96, the “Worst Knee Pain Score, % reduction” value ([1]; total patients, 500 mg, wk 8) was 37% and the “Worst Knee Pain Score” value ([1]; total patients, 500 mg, wk 8, baseline 6.87, p=0.21) was 4.27. The “Worst Knee Pain Score, % reduction” value ([1]; total patients, 500 mg, wk 12) was 41%, the “Worst Knee Pain Score” value ([1]; total patients, 500 mg, wk 12, n=75, baseline 6.87, p=0.249) was 3.99 and the “dose media plasma concentrations, dose relationship” value ([2]; 500 mg and 250 mg daily CBD doses) was “dose proportional”. For the same compound, the “plasma concentration of the 500 mg dose relative to the 250 mg dose” value ([2]; 500 mg vs 250 mg daily) was “approximately two times”.
